Source: US7189710B2, “C2-fluoro pyrrolo [2,1−c][1,4]benzodiazepine dimers” (Council of Scientific and Industrial Research, priority 2004, dated 2007)

Key:
[1] = system: sixty human tumour cells derived from nine cancer types; assay: NCI in vitro cytotoxicity screen, sixty human tumour cell lines, SRB assay, 48 h (mean graph midpoints); assay type: cell-based; conditions: 48 h continuous drug exposure, mean over human tumour cell lines; for Log10LC5O mean graph midpoint (MG_MID): 50% cell death (−50% growth); for GI50: 50% cell growth inhibition, read-out: Log10 GI50 mean graph midpoint (MG_MID) (converted); for Log10 TGI mean graph midpoint (MG_MID): total cell growth inhibition (0% growth)
Procedure: (§1) Biological Activity: In vitro biological activity studies were carried out at National Cancer Institute (USA).
(§2) Cytotoxicity: Compounds IXa and IXc were evaluated for in vitro against sixty human tumour cells derived from nine cancer types (leukemia, non-small-cell lung, colon, CNS, melanoma, ovarian, prostate, and breast cancer). For each compound, dose response curves against each cell line were measured at a minimum of five concentrations at 10 fold dilutions. A protocol of 48 h continuous drug exposure was used and a sulforhodamine B (SRB) protein assay was used to estimate cell viability or growth. The concentration causing 50% cell growth inhibition (GI50), total cell growth inhibition (TGI, 0% growth) and 50% cell death (LC50, −50% growth) compared with the control was calculated.

[2] = system: MCF7 (Breast); assay: In vitro one dose primary anticancer assay; assay type: cell-based, human; conditions: one dose at 10^−4 molar concentration
Procedure: as §1

[3] = system: NCI-H460 (Lung); assay: In vitro one dose primary anticancer assay; assay type: cell-based, human; conditions: one dose at 10^−4 molar concentration
Procedure: as §1

[4] = system: SF-268 (CNS); assay: In vitro one dose primary anticancer assay; assay type: cell-based, human; conditions: one dose at 10^−4 molar concentration
Procedure: as §1

[5] = system: CNS cancer cell lines; assay: NCI in vitro cytotoxicity, SRB assay, average per cancer type; assay type: cell-based; conditions: Homo sapiens; average of six to eight different cancer cell lines; read-out: Log GI50 (inhibitory concentration), CNS (converted)
Procedure: as §1, §2
(§3) Each cancer type represent the average of six to eight different cancer cell lines.

[6] = system: breast cancer cell lines; assay: as above; assay type: cell-based; conditions: Homo sapiens; average of six to eight different cancer cell lines; read-out: Log GI50 (inhibitory concentration), breast (converted)
Procedure: as §1, §2, §3

[7] = system: colon cancer cell lines; assay: as above; assay type: cell-based; conditions: Homo sapiens; average of six to eight different cancer cell lines; read-out: Log GI50 (inhibitory concentration), colon (converted)
Procedure: as §1, §2, §3

[8] = system: leukemia cancer cell lines; assay: as above; assay type: cell-based; conditions: Homo sapiens; average of six to eight different cancer cell lines; read-out: Log GI50 (inhibitory concentration), leukemia (converted)
Procedure: as §1, §2, §3

[9] = system: melanoma cancer cell lines; assay: as above; assay type: cell-based; conditions: Homo sapiens; average of six to eight different cancer cell lines; read-out: Log GI50 (inhibitory concentration), melanoma (converted)
Procedure: as §1, §2, §3

[10] = system: non-small-cell lung cancer cell lines; assay: as above; assay type: cell-based; conditions: Homo sapiens; average of six to eight different cancer cell lines; read-out: Log GI50 (inhibitory concentration), non-small-cell lung (converted)
Procedure: as §1, §2, §3

[11] = system: ovarian cancer cell lines; assay: as above; assay type: cell-based; conditions: Homo sapiens; average of six to eight different cancer cell lines; read-out: Log GI50 (inhibitory concentration), ovarian (converted)
Procedure: as §1, §2, §3

[12] = system: prostate cancer cell lines; assay: as above; assay type: cell-based; conditions: Homo sapiens; average of six to eight different cancer cell lines; read-out: Log GI50 (inhibitory concentration), prostate (converted)
Procedure: as §1, §2, §3

[13] = system: renal cancer cell lines; assay: as above; assay type: cell-based; conditions: Homo sapiens; average of six to eight different cancer cell lines; read-out: Log GI50 (inhibitory concentration), renal (converted)
Procedure: as §1, §2, §3

| Compound | Log10LC5O mean graph midpoint (MG_MID) [1] | GI50 [1] [µM] | Log10 TGI mean graph midpoint (MG_MID) [1] | Growth percentages (Breast) MCF7 [2] [%] | Growth percentages (Lung) NCI-H460 [3] [%] | Growth percentages (CNS) SF-268 [4] [%] | GI50 [5] [µM] | GI50 [6] [µM] | GI50 [7] [µM] | GI50 [8] [µM] | GI50 [9] [µM] | GI50 [10] [µM] | GI50 [11] [µM] | GI50 [12] [µM] | GI50 [13] [µM] |
| --- | --- | --- | --- | --- | --- | --- | --- | --- | --- | --- | --- | --- | --- | --- | --- |
| COc1cc2c(cc1OCCCOc1cc3c(cc1OC)C(=O)N1C[C@@H](F)C[C@H]1C=N3)N=C[C@@H]1C[C@H](F)CN1C2=O [IXa] | −4.31 | 6.17 | −4.75 | 0 | 0 | 0 | 2.86 | 3.24 | 5.19 | 2.15 | 3.24 | 5.52 | 4.9 | 6.61 | 4.84 |
| COc1cc2c(cc1OCCCCCOc1cc3c(cc1OC)C(=O)N1C[C@@H](F)C[C@H]1C=N3)N=C[C@@H]1C[C@H](F)CN1C2=O [IXc] | −4.87 | 0.0724 | −6.27 | 0 | 0 | 0 | 0.0237 | 0.0583 | 0.0863 | 0.0161 | 0.05 | 0.0481 | 0.24 | 0.0372 | 0.0322 |
